These results are taken from PubChem BioAssay AID720495 (Broad Institute, 2013).

The assay has as its target Protein AF-9 (Homo sapiens) (UniProt P42568). The assay is described as follows: AF9 binding to AF4 blockers, potency – biochemical, cherry-picked samples, plate reader, dose response (AID 720495). To be noted: biochemical protein-protein interaction assay; for activity change, negative = inhibition: at 10 µM (top of the series).

Records with an inconclusive call do not appear. Active and inactive are the calls of the source. The rule behind the calls is not given here.

Protein AF-9 (Homo sapiens), sequence (P42568 whole entry, looked up): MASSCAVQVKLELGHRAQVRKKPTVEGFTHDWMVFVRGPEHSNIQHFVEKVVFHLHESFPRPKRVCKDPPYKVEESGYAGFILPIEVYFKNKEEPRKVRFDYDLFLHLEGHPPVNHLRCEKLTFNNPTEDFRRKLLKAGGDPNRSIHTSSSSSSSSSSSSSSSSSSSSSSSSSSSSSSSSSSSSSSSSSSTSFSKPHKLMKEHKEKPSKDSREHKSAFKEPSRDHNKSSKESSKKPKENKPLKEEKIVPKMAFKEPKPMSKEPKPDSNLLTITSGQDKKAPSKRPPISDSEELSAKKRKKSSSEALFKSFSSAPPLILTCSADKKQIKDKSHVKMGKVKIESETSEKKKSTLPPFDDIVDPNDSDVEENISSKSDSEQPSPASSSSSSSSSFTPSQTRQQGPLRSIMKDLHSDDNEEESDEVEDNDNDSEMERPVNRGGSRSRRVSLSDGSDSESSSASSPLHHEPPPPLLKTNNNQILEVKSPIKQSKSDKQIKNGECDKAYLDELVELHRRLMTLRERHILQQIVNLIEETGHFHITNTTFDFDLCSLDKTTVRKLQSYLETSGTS

Usually AC50 stands for the midpoint of the concentration-response curve, whichever way the signal moves. `CCC[C@@H](CN1CCC[C@H]1CN1C(N)=NC[C@@H]1Cc1ccccc1)N1C[C@@H](Cc2ccccc2)N(CCc2ccc(Cl)c(Cl)c2)C1=N`: the AC50 was 5.41 µM. Consider `CN(C)c1ccc(C(CN)c2c[nH]c3ccccc23)cc1` (stereo not drawn), for which the “activity change, negative = inhibition” value was “inactive”.

`CN(C)c1ccc(CNCCC(Cc2ccccc2)c2ccco2)cc1` (stereo not drawn): the AC50 was 5.44 µM. Regarding `Cc1[nH]c2ccc(O)cc2c1CCN`, the AC50 is 5.35 µM. Regarding `COc1cccc2sc(N(CCCN(C)C)C(=O)c3ccc(S(=O)(=O)N4CCCc5ccccc54)cc3)nc12`, the AC50 is 4.68 µM. Same read-out and setting: under `Cc1ccc2c(c1)C1CN(C)CCC1N2Sc1ccccc1[N+](=O)[O-]` (stereo not drawn) stands 5.01 µM. For `Oc1ccccc1C=NCCN1CCN(CCN=Cc2ccccc2O)C1c1ccccc1O` (stereo not drawn), the “activity change, negative = inhibition” value was “inactive”. Same read-out and setting: under `COc1ccc(NC2CCCN(Cc3cccc4cnccc34)C2)cc1OC` (stereo not drawn) stands “inactive”. As to `CC1(C)CNc2cc(N)ccc2S1`, the AC50 was 2.52 µM. `CN(C)CCNc1nc2sc3c(c2c(=O)n1CCc1ccccc1)CCCCC3`: the “activity change, negative = inhibition” value is “inactive”. In the case of `COc1ccc2c(c1)c(=Cc1ccc(N(C)C)cc1)c1cc(-c3ccccc3)[n+](C)n12`, the AC50 was 2.49 µM. Turning to `C[n+]1c(-c2ccc(C=NNC(=O)c3ccc(C(=O)NN=Cc4ccc(-c5cn6ccccc6[n+]5C)cc4)cc3)cc2)cn2ccccc21`, the AC50 was 0.804 µM. On the same count and under the same terms, to `CC[C@H](C)[C@@H]1NC(=O)c2cc([N+](=O)[O-])cc(F)c2NCCCC[C@@H](C(N)=O)NC(=O)[C@H](CCCCN)NC1=O` belongs 9.36 µM; to `CSc1ccc2c(c1)N(CCC1CCCCN1C)c1ccccc1S2` (stereo not drawn), 6.31 µM. On to `COC(=O)C1=CC(C(=O)c2cccs2)=NN(c2ccc(OC)cc2)C1C(=O)OC` (stereo not drawn), for which the “activity change, negative = inhibition” value is “inactive”. On the same count and under the same terms, to `COc1ccccc1N1CCN(/N=C\c2sccc2C)CC1` belongs “inactive”. On to `CC(=O)c1cccc2c(O)c(C3=Nc4ccccc4C3=O)[nH]c12`, for which the AC50 is 3.11 µM. On the same count and under the same terms, under `COc1cc2c(c(OC)c1OC)-c1ccc(O)c(=O)cc1[C@@H](N)CC2` stands 2.3 µM; under `COc1ccc(NC2=C(NCCO)C(=O)c3ccccc3C2=O)cc1`, 4.37 µM.

For the molecule `C(=C\c1ccncc1)/c1ccncc1`, the “activity change, negative = inhibition” value is “inactive”. Same read-out and setting: under `CN(C)c1ccc(NC2=C(Cl)C(=O)c3ccccc3C2=O)cc1` stands “inactive”. As for `COc1ccc(C2CC(=O)Oc3c(C(CCN4CCCC(C)C4)c4ccc(N(C)C)cc4)c(OC)cc(OC)c32)cc1` (stereo not drawn), the AC50 was 0.68 µM. On the same count and under the same terms, to `COCCN=c1scc(-c2ccco2)n1/N=C/c1ccc(O)c(O)c1O` belongs 0.538 µM; to `CN1CCN(C(c2ccccn2)c2cc(Cl)c3cccnc3c2O)CC1` (stereo not drawn), 2.05 µM. On to `COc1ccccc1N1CCN(/N=C/c2cccc(Cl)c2)CC1`, for which the “activity change, negative = inhibition” value is “inactive”.

As to `CCN(CC)CCOc1ccc(/C(=C(/Cl)c2ccccc2)c2ccccc2)cc1`, the AC50 is 0.529 µM. Turning to `C#CCOCCOCCOCCNc1nc(N2CCN(C(=O)[C@H](CCCCN)n3cc([C@@H](N)[C@H](C)CC)nn3)CC2)nc(N2CCN(C(=O)[C@H](CCC(=O)O)n3cc([C@@H](N)CCCCN)nn3)CC2)n1`, the “activity change, negative = inhibition” value is “inactive”. The same measure, in the same setting: under `COc1ccc(OC)c(C2=NOC(C(=O)Nc3c(C)n(C)n(-c4ccccc4)c3=O)C2)c1` (stereo not drawn) stands “inactive”. `CCN(CCCNc1cc2c(c(N)c1S(=O)(=O)O)C(=O)c1ccccc1C2=O)c1ccccc1`: the AC50 is 3.65 µM.

On to `CCN(CC)CCOc1ccc2c(c1)C(=NNC(=O)c1ccccn1)c1cc(OCCN(CC)CC)ccc1-2`, for which the AC50 is 3.66 µM. On to `Cc1ccsc1/C=N/N1CCN(Cc2ccccc2)CC1`, for which the “activity change, negative = inhibition” value is “inactive”. For the molecule `C[C@@H]1CCCCO[C@H](CN(C)Cc2ccc(Cl)c(Cl)c2)[C@@H](C)CN([C@H](C)CO)C(=O)c2cc(N(C)C)ccc2O1`, the AC50 was 10.1 µM. Regarding `COc1ccc(OC)c(NC2=C(Cl)C(=O)N(Cc3ccccc3)C2=O)c1`, the “activity change, negative = inhibition” value is “inactive”.

Consider `Cc1cc(/C=N/n2c(COc3ccccc3C)nc3ccccc3c2=O)c(O)c([N+](=O)[O-])c1`, for which the “activity change, negative = inhibition” value is “inactive”. Consider `Cc1cc(N=Nc2ccc3ccccc3c2)ccc1O`, for which the AC50 was 9.43 µM. On the same count and under the same terms, under `COc1cc(Nc2c3ccccc3nc3ccccc23)cc(OC)c1OC` stands 0.234 µM; under `COc1ccc(C(CCNCc2ccc(N(C)C)cc2)c2ccccc2OC)cc1` (stereo not drawn), 6.09 µM; under `CN(C)c1ccc(C=c2c3ccccc3n3c2cc(-c2ccccc2)[n+]3C)cc1`, 2.43 µM. For `COc1ccccc1Nc1c2c(nc3ccc(N)cc13)CCCC2`, the “activity change, negative = inhibition” value was “inactive”.

On to `CC(C)C1CC(CCNCc2ccc(N(C)C)cc2)(c2ccccc2)CCO1` (stereo not drawn), for which the “activity change, negative = inhibition” value is “inactive”. For the molecule `C[n+]1c(-c2ccccc2)c2cc(N)ccc2c2ccc(N)cc21`, the AC50 is 9.5 µM. In the case of `Cc1cc(C)c2sc(N(CCCN(C)C)C(=O)c3ccc(S(=O)(=O)N4CCCc5ccccc54)cc3)nc2c1`, the “activity change, negative = inhibition” value was “inactive”. Same read-out and setting: to `CC(C)N1C(=O)/C(=C\c2nc3ccccc3c(=O)[nH]2)c2ccccc21` belongs “inactive”. Take `CN(C)c1cc2c3ccccc3n(C)c2cc1N`: the AC50 is 1.08 µM. For `COCCCNCC(O)COc1cccc2[nH]c(C)cc12` (stereo not drawn), the “activity change, negative = inhibition” value is “inactive”. On to `COc1cc(O)c(C(CCN2CCN(c3ccccc3)CC2)c2ccc(N(C)C)cc2)c(OC)c1` (stereo not drawn), for which the “activity change, negative = inhibition” value is “inactive”. On the same count and under the same terms, under `Cc1cc2c(cc1C)N[C@]1(C[C@H]3CCCC(=O)N4CC[C@@H](C1)[C@@H]34)C(=NC(C)(C)CC(C)(C)C)N2` stands “inactive”. Regarding `CN1CCN(C(c2ccc(Br)cc2)c2cc(Cl)c3cccnc3c2O)CC1` (stereo not drawn), the AC50 was 1.47 µM. In the case of `O=C(N/N=C/c1sc(N2CCCCC2)nc1-c1cccs1)C1CC1`, the “activity change, negative = inhibition” value was “inactive”. As for `O=C1C(NS(=O)(=O)c2ccc(Cl)cc2)=C(N2CCCCC2)C(=O)c2ccccc21`, the AC50 is under 0.08 µM. Consider `CCN1CCCc2cc(CN(CCN3CCOCC3)C(=S)Nc3cccc(C)c3)ccc21`, for which the “activity change, negative = inhibition” value was “inactive”. Same read-out and setting: under `C[C@@H]1ON(C)[C@H]2C[C@H]3c4[nH]c5ccc(-c6ccc7c(c6)OCO7)cc5c4CCN3C[C@@H]12` stands “inactive”; under `Cn1ccc2c(N3CCCCCC3)cc3c(c21)C1CCC3C1` (stereo not drawn), “inactive”; under `Cn1cc(CN2CCC(C(=O)NC(c3ccc(F)cc3)c3ccc4ccccc4n3)CC2)c2ccccc21` (stereo not drawn), “inactive”. For the molecule `CCN(CC)c1ccc(C(=C2C=CC(=[N+](CC)CC)C=C2)c2ccc(N(CC)CC)cc2)cc1`, the AC50 was 0.153 µM. For `C[C@H](CO)N1C[C@H](C)[C@H](CN(C)Cc2ccc(Cl)c(Cl)c2)Oc2ccc(N(C)C)cc2C1=O`, the “activity change, negative = inhibition” value is “inactive”. On the same count and under the same terms, under `C[C@@H]1CCCCO[C@H](CN(C)Cc2ccc(C(F)(F)F)cc2)[C@H](C)CN([C@H](C)CO)C(=O)c2cc(N(C)C)ccc2O1` stands “inactive”. For the molecule `COc1ccc2[nH]c(C)c(CCNCc3cn(C)c4ccccc34)c2c1`, the AC50 was 6.85 µM. Consider `CCc1cccc(NC(=O)CCCCCC2NC(=O)NC2C)c1` (stereo not drawn), for which the AC50 is under 0.08 µM.

Take `CN1CCN(C(c2ccc(C(F)(F)F)cc2)c2ccc3cccnc3c2O)CC1` (stereo not drawn): the AC50 is 0.857 µM. `Oc1cc2c(cc1O)C1c3ccc(O)c(O)c3OCC1(O)C2` (stereo not drawn): the “activity change, negative = inhibition” value is “inactive”.

As for `O=C(COc1ccc2ccc(=O)oc2c1)Nc1ccc(N2CCCCC2)cc1`, the AC50 was 9.56 µM.

On to `CCN(CC)CCC(c1ccc(N(C)C)cc1)c1c(OC)cc(OC)c2c(-c3ccccc3)cc(=O)oc12` (stereo not drawn), for which the AC50 is 3.97 µM. In the case of `CC1=NN(c2ccccc2)C(=O)/C1=C/C=C/c1ccc(N(C)C)cc1`, the “activity change, negative = inhibition” value is “inactive”. For `CN1CCN(CCCCOc2ccccc2C=O)CC1`, the AC50 was 10.6 µM. The same measure, in the same setting: to `C[C@@H]1NC(=O)N[C@@H]1CCCCCC(=O)O` belongs under 0.08 µM. `COc1cccc(-c2ccc3c(c2)[C@H]2[C@H](CCN2C(=O)C2CCCCC2)[C@@H](CO)N3)c1`: the “activity change, negative = inhibition” value was “inactive”. Regarding `CN=c1scc(-c2ccccc2F)n1/N=C(\C)c1cccnc1`, the “activity change, negative = inhibition” value was “inactive”.

For the molecule `CCN1CCN(Cc2ccc(NC(=O)c3cc(NC(=O)c4nccnc4N)cc(OC)c3)cc2C(F)(F)F)CC1`, the “activity change, negative = inhibition” value is “inactive”. Still for that read-out and setting: under `CCOc1ccc(/C=N/Nc2cc(N3CCOCC3)ncn2)c(O)c1` stands “inactive”; under `CC(C)C[C@@H](C(=O)NC1CCN(Cc2ccccc2)CC1)N1C(=O)N2CCc3c([nH]c4ccccc34)[C@@]2(C)C1=O`, “inactive”. As for `C[C@@H]1CN([C@@H](C)CO)C(=O)c2cc(N(C)C)ccc2O[C@@H]1CN(C)Cc1ccc(-c2ccccc2)cc1`, the AC50 is 8.93 µM.

Consider `Oc1ccc(O)c(C=NNC(=S)NC2CC3CC2C2C=CCC32)c1` (stereo not drawn), for which the AC50 is 8.16 µM. On the same count and under the same terms, to `CN(C)c1ccc(N=Cc2cccn2C)cc1` belongs 0.83 µM; to `C[C@H]1CCCCO[C@H](CN(C)Cc2ccc(Cl)c(Cl)c2)[C@@H](C)CN([C@@H](C)CO)C(=O)c2cc(N(C)C)ccc2O1`, 10.6 µM. Regarding `Nc1ccc(N)c(C(=O)O)c1`, the “activity change, negative = inhibition” value was “inactive”. With `O=C1c2ccccc2NC(c2cccc([N+](=O)[O-])c2)N1O` (stereo not drawn), the AC50 was 11.2 µM. On to `CCOc1ccc(NCc2cccn2-c2nnc(N3CCC(C(=O)NCCCN4CCCCC4C)CC3)s2)cc1` (stereo not drawn), for which the AC50 is 4.96 µM.

`Cc1cc(C)cc(OCC(O)CN2CCC(CN3C(=O)c4cccc5cccc(c45)C3=O)CC2)c1` (stereo not drawn): the “activity change, negative = inhibition” value is “inactive”.

On to `COc1ccc(N2CCN(c3cc(C)nc4ccc(OC)cc34)CC2)cc1`, for which the “activity change, negative = inhibition” value was “inactive”. As for `O=C1c2cccc(NCCNCCO)c2C(=O)c2cccc(NCCNCCO)c21`, the AC50 is 6.88 µM.

On to `Oc1c(C(c2ccccc2Cl)N2CCCC2)ccc2cccnc12` (stereo not drawn), for which the AC50 was 0.995 µM. On to `COc1ccc(CCNCc2cc(C)n(-c3ccc(OC)cc3)c2C)cc1`, for which the “activity change, negative = inhibition” value is “inactive”.
